ChEMBL document CHEMBL1201862, “PubChem BioAssay data set” (2004)
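The compound was tested at five concentrations on cells cultured in 96-well plates, with a 48-hour exposure period. Here, GI50 denotes the concentration required for 50% inhibition of growth.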 The source made the active and inactive calls. Rule as the data show it: active = GI50 up to about 1.1 µM and inactive = higher.

Columns and labels:
Assay in all cases: NCI-60 cell line screen, 48 h
UACC-62 = tested on: UACC-62
MDA-MB-231 = tested on: MDA-MB-231
A549 = tested on: A549
COLO 205 = tested on: COLO 205
OVCAR-4 = tested on: OVCAR-4
SK-MEL-5 = tested on: SK-MEL-5
DU-145 = tested on: DU-145
U-251 = tested on: U-251
Malme-3M = tested on: Malme-3M
NCI-H460 = tested on: NCI-H460
KM12 = tested on: KM12
M14 = tested on: M14
HOP-62 = tested on: HOP-62
BT-549 = tested on: BT-549
CAKI-1 = tested on: CAKI-1
SK-OV-3 = tested on: SK-OV-3
SN12C = tested on: SN12C
SF-268 = tested on: SF-268
LOX IMVI = tested on: LOX IMVI
SR = tested on: SR

SMILES	GI50 (UACC-62)	GI50 (MDA-MB-231)	GI50 (A549)	GI50 (COLO 205)	GI50 (OVCAR-4)	GI50 (SK-MEL-5)	GI50 (DU-145)	GI50 (U-251)	GI50 (Malme-3M)	GI50 (NCI-H460)	GI50 (KM12)	GI50 (M14)	GI50 (HOP-62)	GI50 (BT-549)	GI50 (CAKI-1)	GI50 (SK-OV-3)	GI50 (SN12C)	GI50 (SF-268)	GI50 (LOX IMVI)	GI50 (SR)
Sc1nnc(CNc2ccc(-c3nnc(S)n3-c3ccc(Cl)cc3)cc2)n1-c1ccc(Cl)cc1	25.2 µM (inactive)	20.2 µM (inactive)	31.6 µM (inactive)	22.4 µM (inactive)	29.5 µM (inactive)	25.1 µM (inactive)	30.5 µM (inactive)	37.3 µM (inactive)	6.58 µM (inactive)	31.4 µM (inactive)	18.5 µM (inactive)	25.2 µM (inactive)	18.5 µM (inactive)	34.6 µM (inactive)	19.4 µM (inactive)	34.4 µM (inactive)	24.2 µM (inactive)	30.3 µM (inactive)		
NC12CC3CC4C1CC1CC2C(C3)C4(N)C1	> 100 µM (inactive)	> 100 µM (inactive)	> 100 µM (inactive)	> 100 µM (inactive)	> 100 µM (inactive)	> 100 µM (inactive)	> 100 µM (inactive)	> 100 µM (inactive)	> 100 µM (inactive)	> 100 µM (inactive)	> 100 µM (inactive)	> 100 µM (inactive)	> 100 µM (inactive)	> 100 µM (inactive)	> 100 µM (inactive)	> 100 µM (inactive)	> 100 µM (inactive)	> 100 µM (inactive)	> 100 µM (inactive)	
O=S(=O)(O)c1cc(S(=O)(=O)O)c2cc(/N=N/c3c(O)ccc4ccccc34)ccc2c1	> 100 µM (inactive)	> 100 µM (inactive)	> 100 µM (inactive)	> 100 µM (inactive)	> 100 µM (inactive)	> 100 µM (inactive)	> 100 µM (inactive)	> 100 µM (inactive)	50.7 µM (inactive)		> 100 µM (inactive)	> 100 µM (inactive)	> 100 µM (inactive)	> 100 µM (inactive)	> 100 µM (inactive)	> 100 µM (inactive)	> 100 µM (inactive)	> 100 µM (inactive)	> 100 µM (inactive)	
COC1=CC(=O)C2=C(C[C@@]3(C)C(=C2)C(CO)=CC[C@H]3O)C1=O	17.6 µM (inactive)	3.86 µM (inactive)	33.7 µM (inactive)	27.5 µM (inactive)	17.9 µM (inactive)	17.4 µM (inactive)	38.9 µM (inactive)	21 µM (inactive)	34.2 µM (inactive)	25.9 µM (inactive)	31.4 µM (inactive)	21.8 µM (inactive)	25.2 µM (inactive)	19.2 µM (inactive)	73.3 µM (inactive)	88.5 µM (inactive)	17.8 µM (inactive)	18.7 µM (inactive)	17.1 µM (inactive)	
Cc1ccc2c(=O)cc(Cc3csc4ccccc34)[nH]c2n1	27 µM (inactive)	52.5 µM (inactive)	27.4 µM (inactive)	26.7 µM (inactive)	21.1 µM (inactive)	16.4 µM (inactive)	50.9 µM (inactive)	69.8 µM (inactive)	12.4 µM (inactive)		21.3 µM (inactive)	32 µM (inactive)	59.2 µM (inactive)	23.3 µM (inactive)	44.3 µM (inactive)	67 µM (inactive)	42.9 µM (inactive)	21.3 µM (inactive)	17.5 µM (inactive)	
O=[N+]([O-])c1ccc2c(c1)c(S(=O)(=O)O)cc1nonc12	> 100 µM (inactive)	> 100 µM (inactive)	> 100 µM (inactive)	> 100 µM (inactive)	> 100 µM (inactive)	> 100 µM (inactive)		> 100 µM (inactive)	> 100 µM (inactive)	> 100 µM (inactive)	> 100 µM (inactive)	> 100 µM (inactive)	> 100 µM (inactive)	> 100 µM (inactive)	> 100 µM (inactive)	> 100 µM (inactive)	> 100 µM (inactive)	> 100 µM (inactive)	> 100 µM (inactive)	> 100 µM (inactive)
COc1cc2c(cc1OC)C(c1ccccc1CCCCl)=NCC2	40.9 µM (inactive)	> 100 µM (inactive)	> 100 µM (inactive)	40 µM (inactive)	91.4 µM (inactive)	23.3 µM (inactive)	> 100 µM (inactive)	8.07 µM (inactive)		48.6 µM (inactive)	55.6 µM (inactive)	> 100 µM (inactive)	> 100 µM (inactive)	38.3 µM (inactive)	> 100 µM (inactive)	> 100 µM (inactive)	93.1 µM (inactive)	58.2 µM (inactive)		
COc1cccc(NC(=O)C(C#N)=C(SC)SC)c1	> 100 µM (inactive)	> 100 µM (inactive)	> 100 µM (inactive)	> 100 µM (inactive)	> 100 µM (inactive)	41.8 µM (inactive)		> 100 µM (inactive)	> 100 µM (inactive)	> 100 µM (inactive)	> 100 µM (inactive)	> 100 µM (inactive)	> 100 µM (inactive)	> 100 µM (inactive)	95.1 µM (inactive)	> 100 µM (inactive)	> 100 µM (inactive)	> 100 µM (inactive)	> 100 µM (inactive)	
Cc1cn(C(CO)OC(CO)CN(O)C2C3CC4CC(C3)CC2C4)c(=O)[nH]c1=O (configuration not stated)	> 100 µM (inactive)	> 100 µM (inactive)	> 100 µM (inactive)	> 100 µM (inactive)	> 100 µM (inactive)	> 100 µM (inactive)	> 100 µM (inactive)	> 100 µM (inactive)		> 100 µM (inactive)	> 100 µM (inactive)	> 100 µM (inactive)	> 100 µM (inactive)	> 100 µM (inactive)	> 100 µM (inactive)	> 100 µM (inactive)	> 100 µM (inactive)	> 100 µM (inactive)		> 100 µM (inactive)
COc1ccc2c(c1)nc1n2C(N)=Nc2ccccc2S1	21 µM (inactive)	52.5 µM (inactive)	29.7 µM (inactive)	6.08 µM (inactive)	34.4 µM (inactive)	7.45 µM (inactive)	35.5 µM (inactive)	18.8 µM (inactive)	62.2 µM (inactive)	12.8 µM (inactive)	15.4 µM (inactive)	10.6 µM (inactive)	53.1 µM (inactive)	48.2 µM (inactive)	> 100 µM (inactive)	67 µM (inactive)	44.6 µM (inactive)	16.7 µM (inactive)	11.8 µM (inactive)	
Cc1ccc(-n2cnc3c(N/N=C4\SCC(=O)N4c4ccccc4)ncnc32)cc1	4.37 µM (inactive)	3.3 µM (inactive)	11.9 µM (inactive)	4.98 µM (inactive)	8.75 µM (inactive)	3.9 µM (inactive)	4.37 µM (inactive)	4.72 µM (inactive)	4.39 µM (inactive)	2.9 µM (inactive)	1.07 µM (active)	3.66 µM (inactive)	15.2 µM (inactive)	3.85 µM (inactive)	6.01 µM (inactive)	14.6 µM (inactive)	2.97 µM (inactive)	4.88 µM (inactive)	2.54 µM (inactive)	
